From article PMC5192239 (Data in Brief, 2016) come the findings set out here.

Data set [1] concerns the target T1, human phosphoglucomutase 1 (hPGM1) (Homo sapiens, UniProt P36871).
T1 construct: gene PGM1
T1 sequence (P36871 1-562): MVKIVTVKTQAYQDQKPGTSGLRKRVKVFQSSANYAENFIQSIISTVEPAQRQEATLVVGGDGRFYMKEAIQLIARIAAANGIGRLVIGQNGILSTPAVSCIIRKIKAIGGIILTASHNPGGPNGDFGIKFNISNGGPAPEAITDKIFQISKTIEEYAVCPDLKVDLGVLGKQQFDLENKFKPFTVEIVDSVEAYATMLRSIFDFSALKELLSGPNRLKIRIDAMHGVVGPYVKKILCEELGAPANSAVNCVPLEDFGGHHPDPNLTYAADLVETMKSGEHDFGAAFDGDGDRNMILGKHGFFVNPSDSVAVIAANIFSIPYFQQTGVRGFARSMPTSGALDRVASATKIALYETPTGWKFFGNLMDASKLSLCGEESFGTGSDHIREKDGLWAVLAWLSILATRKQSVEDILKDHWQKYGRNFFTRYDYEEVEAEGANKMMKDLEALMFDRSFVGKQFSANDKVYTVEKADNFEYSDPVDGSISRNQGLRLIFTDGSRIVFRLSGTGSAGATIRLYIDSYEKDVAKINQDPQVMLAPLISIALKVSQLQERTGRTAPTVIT
The data set is described as follows: ESI-MS of intact purified protein:[…] phosphorylation of active site serine after incubation. The class given is biochemical.

The target of data set [2] is T2, Pseudomonas aeruginosa PMM/PGM (PaPMM) (Pseudomonas aeruginosa, UniProt P26276).
T2 construct: gene algC
T2 sequence (P26276 2-463): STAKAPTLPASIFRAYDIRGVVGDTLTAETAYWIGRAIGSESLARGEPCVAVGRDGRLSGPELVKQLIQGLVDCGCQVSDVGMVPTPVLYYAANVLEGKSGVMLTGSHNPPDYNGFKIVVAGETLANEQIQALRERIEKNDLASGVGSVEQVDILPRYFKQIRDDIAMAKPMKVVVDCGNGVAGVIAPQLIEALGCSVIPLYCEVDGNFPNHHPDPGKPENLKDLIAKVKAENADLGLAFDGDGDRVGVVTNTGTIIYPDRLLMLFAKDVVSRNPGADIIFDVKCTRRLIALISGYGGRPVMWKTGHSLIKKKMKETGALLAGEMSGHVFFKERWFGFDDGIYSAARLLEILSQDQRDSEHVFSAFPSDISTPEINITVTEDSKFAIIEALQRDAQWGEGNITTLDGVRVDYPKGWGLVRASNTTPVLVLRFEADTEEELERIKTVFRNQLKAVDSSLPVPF
As to the kind of experiment: product formation in coupled G6PDH assay; ESI-MS dephosphorylation of catalytic serine ([…]). In kind it is biochemical.

Data set [3] has as its target T2, Pseudomonas aeruginosa PMM/PGM (PaPMM). The data set is described as follows: coupled G6PDH enzyme assay, noncompetitive inhibition fit; also ESI-MS dephosphorylation of active site serine. In kind it is biochemical.
Data set [4] shares this target. As to the kind of experiment: coupled G6PDH enzyme assay, competitive inhibition fit (text prints Ki in μM; Fig. […] legend prints mM). The class given is biochemical.
Data set [5] deals with O=P(O)(O)O[C@H]1O[C@H](CO)[C@@H](O)[C@H](O)[C@H]1O. As to the kind of experiment: purified protein.

As for `O=C(COP(=O)(O)O)[C@@H](O)[C@H](O)[C@H](O)COP(=O)(O)O` [F16P, fructose 1,6-bisphosphate], the “ESI-MS of intact purified protein: 92% phosphorylation of active site serine aft” value in data set [1] was “Treatment of hPGM1 with F16P was done herein”. Take `O=C[C@H](O)[C@@H](O)[C@H](O)[C@H](O)COP(=O)(O)O` [G6P, glucose 6-phosphate]: in data set [2], the “product formation in coupled G6PDH assay; ESI-MS dephosphorylation of catalytic” value was “Enzymatic activity of PaPMM was quantified by measuring the formation of glucose 6-phosphate (G6P)”.

Regarding `N[C@H]1C(OP(=O)(O)O)O[C@H](CO)[C@@H](O)[C@@H]1O` (some centres unmarked) [GlcN1P, glucosamine 1-phosphate], in data set [3], the affinity, expressed as Ki, was 307 ± 29 µM.

Turning to `O=P(O)(O)O[C@H]1OC[C@@H](O)[C@H](O)[C@H]1O` [X1P, xylose 1-phosphate], affinity in data set [4] was put at a Ki of 8.6 ± 0.3 µM. As for “Pseudomonas aeruginosa PMM/PGM (PaPMM) (Pseudomonas aeruginosa PAO1)”, in data set [5], the Km stood at 28 ± 2.8 µM.

As a reminder, the Ki is the equilibrium dissociation constant of an inhibitor or competing ligand from its target. As a reminder, the Km is the concentration of substrate that gives half-maximal velocity.
